Test results as given in ChEMBL document CHEMBL3507680, “University of Dundee, Gates Library screen for HepG2 cell viability”.

assay: Human HepG2 cell viability assay in 384 well format; type: toxicity, cell-based; set-up: dose 125 nL, time 70.5 hour; cytotoxicity at 70.5 h: concentration not given beside the values; conditions: HepG2 cells, read-out: Inhibition

In order of rising cytotoxicity at 70.5 h:
1. CCCNC(=O)c1cccc(CNCc2csc(C(C)(C)C)n2)c1  -44.8%
2. CCOCC(=O)N1C[C@@H](O)[C@H](N(C)Cc2ccc(OC)cc2)C1  -13.7%
3. Cc1ccc(C(=O)NC2CCN(C(=O)Nc3ccncc3)CC2)o1  -13.5%
4. CS(=O)(=O)N1CCCC(Cc2cncc(-c3ccccc3C(=O)O)n2)C1 (stereo not given)  -12.4%
5. O=C(NCC1CC1)[C@H]1C[C@@H]2CCN(Cc3ccc4c(c3)OCO4)C[C@@H]2O1  -11.6%
6. CCSCCC(C)NC(=O)Nc1cccn(C)c1=O (stereo not given)  -10%
7. O=C(Cc1n[nH]c(-c2cncc(Br)c2)n1)NCc1cccnc1  -9.48%
8. O=C(CCNS(=O)(=O)c1ccc(F)cc1)NCc1ccoc1  -9.41%
9. O=C1CC(c2ccc(C(=O)O)cc2)c2c(sc3c2CCCC3)N1 (stereo not given)  -9.3%
10. Cc1nn(C)cc1C(=O)N1CCCC(n2cncn2)C1 (stereo not given)  -9.27%
11. CN(C)C(=O)CNC(=O)c1ccn(-c2ccc3ccccn23)n1  -8.61%
12. COc1ccc(CSc2nnc(N)n2C2CC2)cc1Cl  -8.32%
13. Cc1ccc(CN(Cc2ccccn2)C2CC(C)(C)NC(C)(C)C2)s1  -7.96%
14. CC(SCCS(C)(=O)=O)c1nc(Cc2ccccc2)no1 (stereo not given)  -7.83%
15. C1CC(c2noc(C3CC3)n2)N(Cc2nnc(C3CC3)o2)C1 (stereo not given)  -7.72%
16. Clc1ccccc1CN1CCc2nc(C3CCCNC3)ncc2C1 (stereo not given)  -7.56%
17. CCCC(=O)NCCc1nc(N(C)C)ncc1-c1ccncc1  -7.54%
18. Cc1cc(O)nc(C2CN(CCC(F)(F)F)CCO2)n1 (stereo not given)  -7.38%
19. CC(C)NC(=O)CCN1CCC(C(=O)c2cc(F)ccc2F)CC1  -7.21%
20. CCN(CC)S(=O)(=O)N1C[C@@H](O)[C@H](Oc2cccc(F)c2)C1  -6.35%
21. O=C(c1ccco1)N1CCO[C@@H]2CN(Cc3nccs3)CC[C@@H]2C1  -6.2%
22. COc1ccc(C[C@H]2CNCC[C@@H]2OC)cc1  -5.86%
23. CNC(=O)CCc1cc(C2CCCN2C(=O)CO)nc(C)n1 (stereo not given)  -5.79%
24. Cc1cc(C(=O)N2CCC(n3cc(CO)nn3)CC2)ccc1F  -5.39%
25. Cc1cccc(N2CCOCC3(C2)CN(c2ccccc2)C(=O)CO3)n1 (stereo not given)  -4.51%
26. CC(O)c1cn(Cc2cccc(C(F)(F)F)c2)nn1 (stereo not given)  -4.44%
27. Cn1cnnc1C1CCCN(C(=O)c2ccccc2Cl)C1 (stereo not given)  -4.06%
28. CNC(=O)C1CC(=O)N(c2cccc(F)c2)C1 (stereo not given)  -3.04%
29. CN(Cc1nc(CC2CC2)no1)CC1COc2ccccc2O1 (stereo not given)  -3.03%
30. Cc1ncc(CNC2CCCN(Cc3noc(C4CC4)n3)C2)s1 (stereo not given)  -2.63%
31. O=C(c1ccnc(-n2ccnc2)c1)N1CCCC(n2cccn2)C1 (stereo not given)  -2.44%
32. Cn1nc(C(=O)N2CCOCC2)cc1C(=O)Nc1cc(Cl)cc(Cl)c1  -0.911%
33. CCOCCN1CCC=C(C2c3nc[nH]c3CCN2C(C)=O)C1 (stereo not given)  0.27%
34. COC(=O)CCCNC(=O)c1cc(COc2cncc(Cl)c2)on1  0.545%
35. CC(C)OC(=O)CN1N=C(C(=O)N2CCCC2)S(=O)(=O)c2ccccc21  1.63%
36. CCCN1CCCC2(CCN(c3nccc(OC)n3)C2)C1=O (stereo not given)  2.5%
37. CCCNc1ncc(CN2C[C@H]3CC[C@@H]2CN(C2CCOCC2)C3)cn1  2.68%
38. CCN(C(=O)CSc1ccc(C(F)(F)F)cn1)C1CC1  7.64%
39. CCNC(=O)Cn1ncc(N(C)CCc2ccccc2)cc1=O  8.48%
40. F[C@@H]1CN(Cc2ccccc2)C[C@@H]1OCc1nc2cnccc2[nH]1  13.9%
41. Cc1cn2c(n1)CCC(NC(=O)CCCn1cncn1)C2 (stereo not given)  15.9%
42. Fc1ccc(CN2CCCN(Cc3cscn3)CC2)cc1  23.4%
43. CNC(=O)C1CCN(C(=O)CCn2cccn2)CC1  26.7%
44. Cc1ccc(CN(Cc2ccccn2)C(=O)CCC2CCCN(C)C2)s1 (stereo not given)  32.1%
45. O=C(CCCc1nc2ccccc2[nH]1)N1CCCC1c1ccncc1 (stereo not given)  32.6%
